# Assays:
# [1] = Approximate solubility in water at different pH values
# [2] = physchem
"solubility ([1]; pH 1, simulated gastric fluid)","solubility ([1]; pH 4.5, aqueous buffer)","solubility ([1]; pH 6, aqueous buffer)",SMILES,"solubility ([2]; pH 1, simulated gastric fluid)","solubility ([2]; pH 2, simulated gastric fluid)","solubility ([2]; pH 4.5, aqueous buffer)","solubility ([2]; pH 6, aqueous buffer)"
26100 µg/mL,3900 µg/mL,3300 µg/mL,CC[C@H]1OC(=O)[C@H](C)[C@@H](O[C@H]2C[C@@](C)(OC)[C@@H](O)[C@H](C)O2)[C@H](C)[C@@H](O[C@@H]2O[C@H](C)C[C@H](N(C)C)[C@H]2O)[C@](C)(OC)C[C@@H](C)C(=O)[C@H](C)[C@@H](O)[C@]1(C)O [clarithromycin],,,,
,,,CC[C@H]1OC(=O)[C@H](C)[C@@H](O[C@H]2C[C@@](C)(OC)[C@@H](O)[C@H](C)O2)[C@H](C)[C@@H](O[C@@H]2O[C@H](C)C[C@H](N(C)C)[C@H]2O)[C@](C)(O)C[C@](C)(F)C(=O)[C@H](C)[C@@H](O)[C@]1(C)O [flurithromycin],22000 µg/mL,11800 µg/mL,4200 µg/mL,300 µg/mL

# — patent publication EP2283824B1, “Compositions and formulations based on swellable matrices for sustained release of poorly soluble drugs such as clarithromycin” (Special Product's Line S.p.A., priority 2009, dated 2011)
